Results on 23 compounds are retold here after BindingDB's records for doi:10.1021/cb4002602 (National University of Singapore, 2013).

Each structure is given as a SMILES string.

Sequence of Protein disulfide-isomerase (Bos taurus) (P05307 whole entry, looked up): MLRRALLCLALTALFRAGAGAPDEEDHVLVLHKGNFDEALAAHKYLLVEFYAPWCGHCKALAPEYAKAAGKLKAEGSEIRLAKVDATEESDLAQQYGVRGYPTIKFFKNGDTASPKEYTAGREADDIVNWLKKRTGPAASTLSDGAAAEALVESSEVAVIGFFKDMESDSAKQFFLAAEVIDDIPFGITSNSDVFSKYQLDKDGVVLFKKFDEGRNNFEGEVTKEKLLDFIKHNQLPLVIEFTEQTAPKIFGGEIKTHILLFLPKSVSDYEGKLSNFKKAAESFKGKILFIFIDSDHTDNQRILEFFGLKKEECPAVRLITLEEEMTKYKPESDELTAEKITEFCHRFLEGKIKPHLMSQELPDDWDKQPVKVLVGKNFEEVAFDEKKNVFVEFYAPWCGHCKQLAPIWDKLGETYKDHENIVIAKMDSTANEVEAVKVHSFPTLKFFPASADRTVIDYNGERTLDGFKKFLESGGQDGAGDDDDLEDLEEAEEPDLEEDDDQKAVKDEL

The experiment addresses Protein disulfide-isomerase (Bos taurus) (UniProt P05307). Nature of the experiment: The assay was carried out in 384-well plates according to literature procedures [46]. Each well contained 100mM sodium phosphate and 0.2mM EDTA pH 7.0. 10ng PDI was pre-incubated with various concentration of probes (4% DMSO) in 20uL buffer for 30 min at 37 degrees Celsius, followed by the addition of insulin (0.16mM final concentration) and DDT (1mM.
The term IC50 denotes the concentration needed to halve the response being measured. High values mean a need for much substance, low ones inhibition by little substance. In turn, `C#CCNC(=O)[C@H](Cc1ccc(OS(=O)(=O)C=C)cc1)NC(=O)C1(C)CCCCC1` [PDI inhibitor P16] registered an IC50 of 2300 nM.
`C#CCNC(=O)[C@H](Cc1ccc(OS(=O)(=O)C=C)cc1)NC(=O)c1cc(OC)c(OC)cc1Br` [PDI inhibitor P25] showed a half-maximal inhibitory concentration (IC50) of 3400 nM.
For `C#CCNC(=O)[C@H](Cc1ccc(OS(=O)(=O)C=C)cc1)NC(=O)C1(c2ccccc2)CC1` [PDI inhibitor P10], inhibition was half-maximal at 2100 nM (IC50).
In the case of `C#CCNC(=O)[C@H](Cc1ccc(OS(=O)(=O)C=C)cc1)NC(=O)c1ccc(C)c(F)c1` [PDI inhibitor P21], the IC50 was 2500 nM.
Consider `C#CCNC(=O)[C@H](Cc1ccc(OS(=O)(=O)C=C)cc1)NC(=O)c1ccc(C)cc1C` [PDI inhibitor P7], for which inhibition was half-maximal at 3100 nM (IC50).
Consider `C#CCNC(=O)[C@H](Cc1ccc(OS(=O)(=O)C=C)cc1)NC(=O)CCc1ccccc1` [PDI inhibitor P24], for which the IC50 was found to be 2200 nM.
In turn, `C#CCNC(=O)[C@H](Cc1ccc(OS(=O)(=O)C=C)cc1)NC(=O)c1ccc(F)cc1Cl` [PDI inhibitor P18] yielded an IC50 of 2800 nM.
As for `C#CCNC(=O)[C@H](Cc1ccc(OS(=O)(=O)C=C)cc1)NC(=O)CCc1ccc(OC)cc1` [PDI inhibitor P17], half-maximal inhibition (IC50) required 3300 nM.
`C#CCCNC(=O)[C@H](Cc1ccc(OS(=O)(=O)C=C)cc1)NC(=O)[C@H](Cc1ccccc1)NC(=O)OC(C)(C)C` [PDI inhibitor P1] registered an IC50 of 1700 nM.
In the case of `C#CCNC(=O)[C@H](Cc1ccc(OS(=O)(=O)C=C)cc1)NC(=O)C(C)(C)CC` [PDI inhibitor P12], the IC50 turned out to be 3200 nM.
Compound `C#CCNC(=O)[C@H](Cc1ccc(OS(=O)(=O)C=C)cc1)NC(=O)C1(C)CC1(Cl)Cl` (stereo partly drawn) [PDI inhibitor P19] registered a half-inhibitory concentration (IC50) of 2500 nM.
Take `C#CCNC(=O)[C@H](Cc1ccc(OS(=O)(=O)C=C)cc1)NC(=O)C(=O)c1ccccc1` [PDI inhibitor P23]: half-maximal inhibition (IC50) required 1800 nM.
The compound `COC(=O)C1(C)c2[nH]c3ccccc3c2CCN1C(=O)CCl` (stereo not drawn) [16F16] registered an IC50 of 74000 nM.
In turn, `C#CCNC(=O)[C@H](Cc1ccc(OS(=O)(=O)C=C)cc1)NC(=O)c1cc(F)c(F)c(OC)c1F` [PDI inhibitor P22] showed an IC50 of 1400 nM.
Compound `C=CS(=O)(=O)Oc1ccc(C[C@H](NC(=O)[C@H](Cc2ccccc2)NC(=O)OC(C)(C)C)C(=O)NCCNC(=O)CCCC[C@@H]2SCC3NC(=O)NC32)cc1` (stereo partly drawn) [PDI inhibitor P11] yielded an IC50 of 1100 nM.
The value for `C#CCNC(=O)[C@H](Cc1ccc(OS(=O)(=O)C=C)cc1)NC(=O)c1ccc(F)c(C(F)(F)F)c1` [PDI inhibitor P14] was 1000 nM.
In the case of `C#CCNC(=O)[C@H](Cc1ccc(OS(=O)(=O)C=C)cc1)NC(=O)[C@H](Cc1ccccc1)NC(=O)OC(C)(C)C` [PDI inhibitor P6], the IC50 was 1900 nM.
`C#CCCNC(=O)[C@H](Cc1cc(=O)oc2cc(OS(=O)(=O)C=C)ccc12)NC(=O)[C@H](Cc1ccccc1)NC(=O)OC(C)(C)C` [PDI inhibitor P2] yielded an IC50 of 1800 nM.
In turn, `C#CCNC(=O)[C@H](Cc1ccc(OS(=O)(=O)C=C)cc1)NC(=O)c1ccc2ccccc2c1` [PDI inhibitor P8] displayed an IC50 of 2700 nM.
With `C#CCNC(=O)[C@H](Cc1ccc(OS(=O)(=O)C=C)cc1)NC(=O)c1ccc(OC)cc1` [PDI inhibitor P9] the figure was 5300 nM; with `C#CCNC(=O)[C@H](Cc1ccc(OS(=O)(=O)C=C)cc1)NC(=O)c1c(F)c(F)c(F)c(F)c1F` [PDI inhibitor P13], 2500 nM.
Take `C#CCNC(=O)[C@H](Cc1ccc(OS(=O)(=O)C=C)cc1)NC(=O)c1ccc(CC)cc1` [PDI inhibitor P15]: half-maximal inhibition (IC50) required 1100 nM.
In turn, `C#CCNC(=O)[C@H](Cc1ccc(OS(=O)(=O)C=C)cc1)NC(=O)C(Cl)CC` (stereo partly drawn) [PDI inhibitor P20] showed an IC50 of 5700 nM.
